# The source made the active and inactive calls. No rule for the calls is given here.
# Tested on: CCRIS mutagenicity, Ames/micronucleus/aberration tests
# Test: CCRIS mutagenicity studies
# [1] = Test System: AMES SALMONELLA TYPHIMURIUM, Strain/Indicator: TA98, Metabolic Activation: NONE, Method: PREINCUBATION
# [2] = Test System: AMES SALMONELLA TYPHIMURIUM, Strain/Indicator: TA98, Metabolic Activation: NONE, Method: STANDARD PLATE
# [3] = Test System: AMES SALMONELLA TYPHIMURIUM, Strain/Indicator: TA98, Metabolic Activation: RAT, LIVER, S-9, AROCLOR 1254, Method: STANDARD PLATE
# [4] = Test System: AMES SALMONELLA TYPHIMURIUM, Strain/Indicator: TA100, Metabolic Activation: NONE, Method: PREINCUBATION
# [5] = Test System: AMES SALMONELLA TYPHIMURIUM, Strain/Indicator: TA100, Metabolic Activation: NONE, Method: STANDARD PLATE
# [6] = Test System: AMES SALMONELLA TYPHIMURIUM, Strain/Indicator: TA100, Metabolic Activation: RAT, LIVER, S-9, AROCLOR 1254, Method: STANDARD PLATE
# [7] = Test System: AMES SALMONELLA TYPHIMURIUM, Strain/Indicator: TA1535, Metabolic Activation: NONE, Method: STANDARD PLATE
# [8] = Test System: AMES SALMONELLA TYPHIMURIUM, Strain/Indicator: TA1537, Metabolic Activation: NONE, Method: STANDARD PLATE
compound,measurement,setting,value
CN(CCO)CCO,mutagenic call,"Test System: AMES SALMONELLA TYPHIMURIUM, Strain/Indicator: TA98, Metabolic Activation: HAMSTER, LIVER, S-9, AROCLOR 1254 (10%), Method: PREINCUBATION",inactive; negative
same,mutagenic call,[1],inactive; negative
same,mutagenic call,[2],inactive; negative
same,mutagenic call,"Test System: AMES SALMONELLA TYPHIMURIUM, Strain/Indicator: TA98, Metabolic Activation: RAT, LIVER, S-9, AROCLOR 1254 (10%), Method: PREINCUBATION",inactive; negative
same,mutagenic call,[3],inactive; negative
same,mutagenic call,"Test System: AMES SALMONELLA TYPHIMURIUM, Strain/Indicator: TA100, Metabolic Activation: HAMSTER, LIVER, S-9, AROCLOR 1254 (10%), Method: PREINCUBATION",inactive; negative
same,mutagenic call,[4],inactive; negative
same,mutagenic call,[5],inactive; negative
same,mutagenic call,"Test System: AMES SALMONELLA TYPHIMURIUM, Strain/Indicator: TA100, Metabolic Activation: RAT, LIVER, S-9, AROCLOR 1254 (10%), Method: PREINCUBATION",inactive; negative
same,mutagenic call,[6],inactive; negative
same,mutagenic call,"Test System: AMES SALMONELLA TYPHIMURIUM, Strain/Indicator: TA1535, Metabolic Activation: HAMSTER, LIVER, S-9, AROCLOR 1254 (10%), Method: PREINCUBATION",inactive; negative
same,mutagenic call,"Test System: AMES SALMONELLA TYPHIMURIUM, Strain/Indicator: TA1535, Metabolic Activation: NONE, Method: PREINCUBATION",inactive; negative
same,mutagenic call,[7],inactive; negative
same,mutagenic call,"Test System: AMES SALMONELLA TYPHIMURIUM, Strain/Indicator: TA1535, Metabolic Activation: RAT, LIVER, S-9, AROCLOR 1254 (10%), Method: PREINCUBATION",inactive; negative
same,mutagenic call,"Test System: AMES SALMONELLA TYPHIMURIUM, Strain/Indicator: TA1535, Metabolic Activation: RAT, LIVER, S-9, AROCLOR 1254, Method: STANDARD PLATE",inactive; negative
same,mutagenic call,"Test System: AMES SALMONELLA TYPHIMURIUM, Strain/Indicator: TA1537, Metabolic Activation: HAMSTER, LIVER, S-9, AROCLOR 1254 (10%), Method: PREINCUBATION",inactive; negative
same,mutagenic call,"Test System: AMES SALMONELLA TYPHIMURIUM, Strain/Indicator: TA1537, Metabolic Activation: NONE, Method: PREINCUBATION",inactive; negative
same,mutagenic call,[8],inactive; negative
same,mutagenic call,"Test System: AMES SALMONELLA TYPHIMURIUM, Strain/Indicator: TA1537, Metabolic Activation: RAT, LIVER, S-9, AROCLOR 1254 (10%), Method: PREINCUBATION",inactive; negative
same,mutagenic call,"Test System: AMES SALMONELLA TYPHIMURIUM, Strain/Indicator: TA1537, Metabolic Activation: RAT, LIVER, S-9, AROCLOR 1254, Method: STANDARD PLATE",inactive; negative
same,mutagenic call,"Test System: AMES SALMONELLA TYPHIMURIUM, Strain/Indicator: TA1538, Metabolic Activation: NONE, Method: STANDARD PLATE",inactive; negative
same,mutagenic call,"Test System: AMES SALMONELLA TYPHIMURIUM, Strain/Indicator: TA1538, Metabolic Activation: RAT, LIVER, S-9, AROCLOR 1254, Method: STANDARD PLATE",inactive; negative
same,mutagenic call,"Test System: CHINESE HAMSTER OVARY, Strain/Indicator: CHO-K1-BH4, Metabolic Activation: NONE",inactive; negative
same,mutagenic call,"Test System: CHINESE HAMSTER OVARY, Strain/Indicator: CHO-K1-BH4, Metabolic Activation: RAT, LIVER, S-9, AROCLOR 1254",inactive; negative
[O]=[Cr][O][Cr]=[O],mutagenic call,"Test System: CHINESE HAMSTER V-79, Strain/Indicator: V-79/6-THIOGUANINE, Metabolic Activation: NONE",active; positive
CO/N=C(\C(=O)N[C@@H]1C(=O)N2C(C(=O)[O-])=C(C[n+]3ccn4ncccc43)CS[C@H]12)c1nsc(N)n1,mutagenic call,[2],inactive; negative
same,mutagenic call,"Test System: AMES SALMONELLA TYPHIMURIUM, Strain/Indicator: TA98, Metabolic Activation: RAT, LIVER, S-9, SODIUM PHENOBARBITAL AND 5,6-BENZOFLAVONE, Method: STANDARD PLATE",inactive; negative
same,mutagenic call,[5],inactive; negative
same,mutagenic call,"Test System: AMES SALMONELLA TYPHIMURIUM, Strain/Indicator: TA100, Metabolic Activation: RAT, LIVER, S-9, SODIUM PHENOBARBITAL AND 5,6-BENZOFLAVONE, Method: STANDARD PLATE",inactive; negative
same,mutagenic call,[7],inactive; negative
same,mutagenic call,"Test System: AMES SALMONELLA TYPHIMURIUM, Strain/Indicator: TA1535, Metabolic Activation: RAT, LIVER, S-9, SODIUM PHENOBARBITAL AND 5,6-BENZOFLAVONE, Method: STANDARD PLATE",inactive; negative
same,mutagenic call,[8],inactive; negative
same,mutagenic call,"Test System: AMES SALMONELLA TYPHIMURIUM, Strain/Indicator: TA1537, Metabolic Activation: RAT, LIVER, S-9, SODIUM PHENOBARBITAL AND 5,6-BENZOFLAVONE, Method: STANDARD PLATE",inactive; negative
same,mutagenic call,"Test System: E. COLI, Strain/Indicator: WP2 UVRA, Metabolic Activation: NONE, Method: STANDARD PLATE",inactive; negative
same,mutagenic call,"Test System: E. COLI, Strain/Indicator: WP2 UVRA, Metabolic Activation: RAT, LIVER, S-9, SODIUM PHENOBARBITAL AND 5,6-BENZOFLAVONE, Method: STANDARD PLATE",inactive; negative
C/C(O)=C(\N=O)C(=O)N(c1ccccc1)N(C)N=O,mutagenic call,[1],active; positive
same,mutagenic call,"Test System: AMES SALMONELLA TYPHIMURIUM, Strain/Indicator: TA98, Method: PREINCUBATION",active; positive
same,mutagenic call,[4],active; positive
same,mutagenic call,"Test System: AMES SALMONELLA TYPHIMURIUM, Strain/Indicator: TA100, Method: PREINCUBATION",active; positive
O=C(c1ccccc1)C1OC1c1ccc(Oc2ccccc2)cc1 (stereo not drawn),mutagenic call,[2],inactive; negative
same,mutagenic call,[3],inactive; negative
same,mutagenic call,[5],inactive; negative
same,mutagenic call,[6],inactive; negative

# Reference: PubChem BioAssay AID1259407 (Chemical Carcinogenesis Research Information System (CCRIS), 2018)
